Measurements from PubChem BioAssay (NCI).
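Interpolation was linear, between the two tested concentrations surrounding the appropriate level; five concentrations were tested over 48 hours in 96-well plates. The concentration for full growth arrest is given as TGI.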

Legend:
Experiment in all cases: NCI anticancer screen, dose series, 48 h
M14 melanoma = system: M14 melanoma
SF-539 CNS = system: SF-539 CNS
CCRF-CEM leukemia = system: CCRF-CEM leukemia
LOX IMVI melanoma = system: LOX IMVI melanoma
SK-MEL-5 melanoma = system: SK-MEL-5 melanoma
MALME-3M melanoma = system: MALME-3M melanoma
NCI-H226 lung = system: NCI-H226 lung
A549 NSCLC = system: A549 NSCLC
HCT-116 colon = system: HCT-116 colon
RPMI-8226 leukemia = system: RPMI-8226 leukemia
OVCAR-3 ovarian = system: OVCAR-3 ovarian
IGROV1 ovarian = system: IGROV1 ovarian
SN12C renal = system: SN12C renal
HT29 colon = system: HT29 colon
A498 renal = system: A498 renal
CAKI-1 renal = system: CAKI-1 renal
OVCAR-8 ovarian = system: OVCAR-8 ovarian
K-562 leukemia = system: K-562 leukemia
SNB-75 CNS = system: SNB-75 CNS
HOP-92 NSCLC = system: HOP-92 NSCLC

| Compound | TGI (M14 melanoma) [µM] | TGI (SF-539 CNS) [µM] | TGI (CCRF-CEM leukemia) [µM] | TGI (LOX IMVI melanoma) [µM] | TGI (SK-MEL-5 melanoma) [µM] | TGI (MALME-3M melanoma) [µM] | TGI (NCI-H226 lung) [µM] | TGI (A549 NSCLC) [µM] | TGI (HCT-116 colon) [µM] | TGI (RPMI-8226 leukemia) [µM] | TGI (OVCAR-3 ovarian) [µM] | TGI (IGROV1 ovarian) [µM] | TGI (SN12C renal) [µM] | TGI (HT29 colon) [µM] | TGI (A498 renal) [µM] | TGI (CAKI-1 renal) [µM] | TGI (OVCAR-8 ovarian) [µM] | TGI (K-562 leukemia) [µM] | TGI (SNB-75 CNS) [µM] | TGI (HOP-92 NSCLC) [µM] |
| --- | --- | --- | --- | --- | --- | --- | --- | --- | --- | --- | --- | --- | --- | --- | --- | --- | --- | --- | --- | --- |
| CC(=O)Oc1ccccc1 | > 100 | > 100 | > 100 | > 100 | > 100 | > 100 | > 100 | > 100 | > 100 | > 100 | > 100 | > 100 | > 100 | > 100 | > 100 | > 100 | > 100 | > 100 | > 100 |  |
| CC(=O)Nc1ccc2c(c1)/C(=C\c1ccc([N+](C)(C)C)cc1)c1ccccc1-2 | 33.8 |  | 50.9 | > 100 | 61.8 | > 100 | 74.4 | > 100 | > 100 | 91.3 | > 100 | > 100 | > 100 | > 100 | > 100 | > 100 | > 100 | > 100 | > 100 | 79.9 |
| COc1ccccc1/C=C/c1ccnc2ccccc12 | 29.7 | 27.8 | 34.8 | 36 | 26.4 | 24.8 | 29.5 | 31 | 26.5 | 37.8 | 26.7 | 19.9 | 37.3 | 25.4 | 29.5 | 40.3 | 30.2 | 30.7 | 17 | 26.2 |
| Cc1c2ccccc2c(C2C3C(=O)N(c4ccc(Br)cc4)C(=O)C3ON2C(C(N)=O)c2ccccc2)c2ccccc12 (stereo unspecified) | > 100 | 17.7 | 22.4 | 18.6 | 11.9 | 34.1 | 30 | 14.1 | > 100 | 4.63 | 12.2 | 18.2 | 53.5 | 7.35 | 11.7 | 21.3 | 48 | > 100 | 17.3 | 39.4 |
| Cc1ccc(O)c(Cc2nc3ccccc3nc2-c2cccc(Cl)c2)c1 | > 100 | > 100 |  | > 100 | > 100 | > 100 | > 100 | > 100 | > 100 | 79.4 | > 100 | > 100 | > 100 | > 100 |  | > 100 | > 100 | > 100 |  | 78.5 |
| COc1cc(C(=O)NC2CCc3cc(OC)c(OC)c(OC)c3-c3ccc(OC)c(=O)cc32)cc(OC)c1OC (stereo unspecified) | 10.5 | 0.0689 | > 35 | > 100 | 0.377 | 85.3 | 3.31 | > 100 | 1.69 | 27.4 | 0.261 | 71.6 | > 100 | 2.29 | 8.44 | 34 | > 46.1 | 22 | 18.3 | 3.62 |
| c1ccc2c(CSCc3cccc4ccccc34)cccc2c1 | > 100 |  | > 100 | > 100 | > 100 | > 100 | > 100 | > 100 | > 100 |  | > 100 | > 100 | > 100 | > 100 | > 100 | > 100 | > 100 | > 100 | > 100 | > 100 |
| O=C(COc1ccc(Cl)c(Cl)c1)Nc1ccc[n+](Cc2ccc(S(=O)(=O)F)c(Cl)c2)c1 | > 100 | > 100 |  |  | > 100 | > 100 | > 100 | > 100 | > 100 | 65.4 | > 100 | > 100 | > 100 | > 100 | > 100 | > 100 | > 100 | > 100 | > 100 | > 100 |
| COc1cc2c(c(OC)c1OC)-c1ccc(OC)c(=O)cc1C(NC(=O)COc1ccccc1)CC2 (stereo unspecified) | > 21.5 | < 0.01 | > 63.4 | > 82.6 | 0.0371 | > 100 | 0.423 | > 100 |  | 38.3 | < 0.0355 | > 92.3 | > 100 | < 0.146 | 2.46 | 15.3 | 13.1 | 60.8 | 10.5 | 2.91 |
| Cc1ccc2c(c1)SC1=Nc3sc4cc(C)ccc4[n+]3CN12 | 19.1 | 25.4 |  | > 100 | 3.28 | 4.63 | 75.2 | 67.1 | 35 | 6.17 | 6.97 | 34 | 56.2 | 28.4 | 87.1 |  | 18.8 |  | 64.5 | 68 |
| CC(C)(C)[Si](OC1CCOC1=O)(c1ccccc1)c1ccccc1 (stereo unspecified) | 38.4 | 72.3 | > 100 | 32.2 | 26.1 | 45.1 |  | 62.7 | 26.6 | > 100 | 27.1 | > 100 | 33.5 | 32.3 | 63.8 |  | 70.9 |  | > 100 | > 10 |
| C[C@@H]1C[C@H]2[C@@H]3CCC4=CC(=O)C=C[C@]4(C)[C@@]3(F)[C@@H](O)C[C@]2(C)[C@@]1(O)C(=O)CO | > 100 |  | > 100 | > 100 | > 100 | > 100 | > 100 | > 100 | > 100 |  | > 100 | > 100 | > 100 | > 100 |  | > 100 | > 100 | > 100 |  | > 100 |
| C[n+]1cccc(NC(=O)c2ccc(NC(=O)C34CCC(C(=O)Nc5ccc(C(=O)Nc6ccc[n+](C)c6)cc5)(CC3)CC4)cc2)c1 | > 100 | > 100 | > 100 | > 100 | > 100 |  | > 100 | > 100 | > 100 | > 100 |  | > 100 | 75.1 | > 100 | > 100 |  | > 100 | > 100 | 78.7 | > 100 |
| CNC(=O)OCc1nc(SC)n(C)c1CO |  | > 100 | > 100 | > 100 | > 100 | 3.42 | > 100 | > 100 | > 100 | > 100 | > 100 | > 100 | > 100 | > 100 | > 100 | > 100 | > 100 | > 100 | > 100 | > 100 |
| C[C@H]1C[C@@H]2[C@H]([C@@H](O)C[C@@]3(C)[C@H]2CC[C@]3(O)C(=O)CO)[C@@]2(C)C=CC(=O)C=C12 | > 100 |  | > 100 | > 100 | > 100 | > 100 | > 100 | > 100 | > 100 | > 100 | > 100 | > 100 | > 100 | > 100 | > 100 | > 100 | > 100 | > 100 |  | > 100 |
| CCCCc1ccc(N=C(N)N)cc1 | 63.5 |  | 53.7 | > 100 | 26.8 | > 100 | 91.5 | > 100 | > 100 | 45.2 | > 100 | 71.7 | > 100 | 93.5 | > 100 | > 100 | > 100 | 83.4 |  | > 100 |
| COC1/C=C(C)/C=C/C(C)/C=C/C(=O)OC(/C(C)=C/C=C(\C)CNC(=O)[C@H](CO)NC=O)C(C)/C=C/C=C/C(OC)CC/C=C(C)/C=C/C1 (stereo partly specified) | 0.0356 | > 0.257 | > 1 | > 1 | 0.0654 | 0.385 |  | > 1 | > 1 | 0.0769 | > 0.461 | > 1 | > 1 | > 1 | > 1 | > 0.397 | > 1 | 0.0472 | > 1 | > 0.267 |
